# From patent US6875758B2, “Method of treating hyperlipidemic and hyperglycemic conditions in mammals using pregnadienols and pregnadienones” (Council of Scientific & Industrial Research, priority 1999, dated 2005)
# How the values were obtained:
# [1] = molecular target: T1, Progestin Receptor (Homo sapiens, UniProt P06401); settings: cited from earlier work; for Progestin Receptor Binding Affinity: relative binding affinity
# T1 sequence (P06401 1-933): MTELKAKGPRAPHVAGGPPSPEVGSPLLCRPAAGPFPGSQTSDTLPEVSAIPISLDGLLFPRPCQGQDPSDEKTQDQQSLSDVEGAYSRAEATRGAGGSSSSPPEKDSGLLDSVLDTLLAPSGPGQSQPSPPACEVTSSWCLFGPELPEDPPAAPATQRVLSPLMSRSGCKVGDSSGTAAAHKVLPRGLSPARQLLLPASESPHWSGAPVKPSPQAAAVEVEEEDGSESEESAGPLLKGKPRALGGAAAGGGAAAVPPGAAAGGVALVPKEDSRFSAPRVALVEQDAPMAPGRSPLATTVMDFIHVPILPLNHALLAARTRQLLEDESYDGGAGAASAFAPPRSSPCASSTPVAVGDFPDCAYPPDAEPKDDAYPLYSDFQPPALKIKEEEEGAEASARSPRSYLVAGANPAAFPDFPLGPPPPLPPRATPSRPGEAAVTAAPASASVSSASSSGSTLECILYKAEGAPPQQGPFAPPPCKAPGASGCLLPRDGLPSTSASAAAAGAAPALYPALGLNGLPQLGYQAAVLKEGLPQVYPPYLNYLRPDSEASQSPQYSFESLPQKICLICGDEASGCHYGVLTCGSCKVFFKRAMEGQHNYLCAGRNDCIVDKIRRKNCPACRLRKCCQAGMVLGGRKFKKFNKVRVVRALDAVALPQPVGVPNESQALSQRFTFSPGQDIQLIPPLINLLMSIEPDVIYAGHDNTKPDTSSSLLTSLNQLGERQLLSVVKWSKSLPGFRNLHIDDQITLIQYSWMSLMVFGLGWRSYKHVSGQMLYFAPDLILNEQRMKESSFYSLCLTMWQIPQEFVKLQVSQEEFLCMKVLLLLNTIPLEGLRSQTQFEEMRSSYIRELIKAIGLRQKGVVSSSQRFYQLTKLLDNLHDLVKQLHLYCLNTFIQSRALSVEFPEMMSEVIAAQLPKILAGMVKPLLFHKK
# [2] = molecular target: T2, Androgen Receptor (Homo sapiens, UniProt P10275); settings: relative binding affinity; cited from earlier work
# T2 sequence (P10275 1-920): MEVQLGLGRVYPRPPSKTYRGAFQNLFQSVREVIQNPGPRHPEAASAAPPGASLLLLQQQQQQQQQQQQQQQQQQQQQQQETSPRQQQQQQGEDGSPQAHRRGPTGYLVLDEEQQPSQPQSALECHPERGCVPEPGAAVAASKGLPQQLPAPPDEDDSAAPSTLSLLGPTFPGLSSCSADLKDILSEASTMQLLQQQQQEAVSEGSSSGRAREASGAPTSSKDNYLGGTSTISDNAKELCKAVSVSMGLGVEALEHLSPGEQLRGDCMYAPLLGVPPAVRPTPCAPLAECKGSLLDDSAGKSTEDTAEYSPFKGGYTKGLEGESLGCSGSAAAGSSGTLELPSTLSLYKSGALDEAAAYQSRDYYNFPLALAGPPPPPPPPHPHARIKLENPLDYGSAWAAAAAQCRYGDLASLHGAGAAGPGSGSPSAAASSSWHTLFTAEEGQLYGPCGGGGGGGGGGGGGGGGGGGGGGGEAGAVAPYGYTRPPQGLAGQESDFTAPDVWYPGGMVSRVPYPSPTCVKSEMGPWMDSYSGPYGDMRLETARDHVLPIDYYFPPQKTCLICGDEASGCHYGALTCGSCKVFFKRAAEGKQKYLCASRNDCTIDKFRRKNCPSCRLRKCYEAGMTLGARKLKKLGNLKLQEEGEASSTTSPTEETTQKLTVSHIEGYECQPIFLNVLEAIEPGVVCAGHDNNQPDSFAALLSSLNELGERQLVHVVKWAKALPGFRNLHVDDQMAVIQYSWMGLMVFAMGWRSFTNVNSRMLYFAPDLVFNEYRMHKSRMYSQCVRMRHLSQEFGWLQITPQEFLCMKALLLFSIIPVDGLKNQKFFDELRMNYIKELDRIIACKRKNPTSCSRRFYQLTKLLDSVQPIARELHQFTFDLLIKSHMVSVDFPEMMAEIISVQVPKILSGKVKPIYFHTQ
# [3] = test system: endometrial proliferation; assay: Clauberg assay, endometrial proliferation on McPhail scale; format: in vivo; settings: 50 mg/kg
# Experimental: The progestational activity was also tested in vivo by Clauberg assay method. The degree of endometrial proliferation was estimated on the McPhail scale where 3′ or 4′ was considered as a full progestational effect.
SMILES,Selectivity Index (A/P ratio) ([1]; androgen vs progestin receptor),Progestin Receptor Binding Affinity [1],Androgen Receptor Binding Affinity [2],progestational activity [3]
C#C[C@]1(O)C=C[C@H]2[C@@H]3CCC4=CC(=O)CC[C@@H]4[C@H]3CC[C@@]21CC [Gestodene],28,9.21,0.154,–
"CC(=O)[C@H]1CC[C@H]2[C@@H]3CCC4=CC(=O)CC[C@]4(C)[C@H]3CC[C@]12C [Progesterone, reference compound]",–,–,–,marked progestational activity
C#C[C@]1(O)CC[C@H]2[C@@H]3CCC4=CC(=O)CC[C@@H]4[C@H]3C(=C)C[C@@]21CC [3-Keto-desogestrel],–,8.6,–,–
